# Reference: patent US11702422B2, “Imidazopyridazines as modulators of IL-17” (Janssen Pharmaceutica NV, priority 2020, dated 2023)
# Legend:
# [1] = system: IL-17A-induced G-CSF production in human normal keratinocyte (NHK); assay: NHK Assay: IL-17A-induced G-CSF production in human normal keratinocytes; format: cell-based; conditions: 24 h, adult normal human keratinocytes, IL-17A 5 ng/mL, simple average if tested more than once
# Outline: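 Adult normal human keratinocytes were seeded at 3000-4000 cells/well. Recombinant human IL-17A was pre-incubated 1 h at rt with titrated compound, then added to cells (final 5 ng/mL IL-17A, 0.2% DMSO, 5% FBS) for 24 h at 37° C. Supernatant G-CSF was measured by HTRF against a standard curve to give IC50.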
# [2] = biological target: IL-17A(FLAG-Tagged): IL-17RA(His-Tagged) (Homo sapiens, UniProt Q16552, K93Q); assay: IL-17A(FLAG-Tagged): IL-17RA(His-Tagged) Binding Disruption Eu-HTRF Assay; conditions: IL-17A/IL-17RA binding disruption, simple average if tested more than once
# Outline: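 IC50 comes from a one-site competition fit of the HTRF 665/620 nm ratio. Compound dilutions (2-fold, 22 points) were held 1 h rt with FLAG-tagged IL-17A dimer, then His-tagged IL-17RA plus Eu-cryptate anti-FLAG and D2 anti-His antibodies were added for 2 h rt.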
# UniProt Q16552, sequence (Q16552 with tags, fused parts or gaps K93Q): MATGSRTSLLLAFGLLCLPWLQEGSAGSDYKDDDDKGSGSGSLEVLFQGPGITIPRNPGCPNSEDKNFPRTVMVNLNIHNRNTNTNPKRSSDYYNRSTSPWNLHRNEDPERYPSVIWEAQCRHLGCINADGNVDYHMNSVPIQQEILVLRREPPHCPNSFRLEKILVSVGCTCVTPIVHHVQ
IC50 [2],SMILES,"IC50 ([1]; Homo sapiens, Keratinocyte)",IC50 [1]
1200 nM,"O=C(CCC(F)(F)F)N[C@@H](c1cnn2cc([C@@H](NC(=O)[C@@H]3C[C@@H]3CF)C3CCC(F)(F)CC3)nc2c1)C1CC1 (relative stereo) [Example 365, (1R*,2S*)—N—((S)-(7-((R*)-Cyclopropyl(4,4,4-trifluorobutanamido)methyl)imidazo[1,2-b]pyridazin-2-yl)(4,4-difluorocyclohexyl)methyl)-2-(fluoromethyl)cyclopropane-1-carboxamide]",> 20000 nM,–
110 nM,"O=C(CCC(F)(F)F)N[C@@H](c1cnn2cc([C@@H](NC(=O)c3ncnn3CC3CC3)C3CCC(F)(F)CC3)nc2c1)C1CC1 [Example 39, N—((S)-(7-((R)-Cyclopropyl(4,4,4-trifluorobutanamido)methyl)imidazo[1,2-b]pyridazin-2-yl)(4,4-difluorocyclohexyl)methyl)-1-(cyclopropylmethyl)-1H-1,2,4-triazole-5-carboxamide]",430 nM,–
240 nM,"O=C(CCC(F)(F)F)N[C@@H](c1cnn2cc([C@@H](NC(=O)C3CC34CCC4)C3CCC(F)(F)CC3)nc2c1)C1CC1 (stereo partly drawn) [Example 45, N—((S)-(7-((R)-Cyclopropyl(4,4,4-trifluorobutanamido)methyl)imidazo[1,2-b]pyridazin-2-yl)(4,4-difluorocyclohexyl)methyl)spiro[2.3]hexane-1-carboxamide]",710 nM,–
240 nM,"O=C(CC1CC(F)(F)C1)N[C@@H](c1cnn2cc([C@@H](NC(=O)c3nonc3CN3CC(F)C3)C3CCC(F)(F)CC3)nc2c1)C1CC1 [Example 407, N—((S)-(7-((R)-Cyclopropyl(2-(3,3-difluorocyclobutyl)acetamido)methyl)imidazo[1,2-b]pyridazin-2-yl)(4,4-difluorocyclohexyl)methyl)-4-((3-fluoroazetidin-1-yl)methyl)-1,2,5-oxadiazole-3-carboxamide]",97 nM,–
56 nM,"CCC(NC(=O)CC1CC(F)(F)C1)c1cnn2cc([C@@H](NC(=O)c3nonc3C3CC3)C3CCC(F)(F)CC3)nc2c1 (single isomer, unassigned) [Example 507, 4-Cyclopropyl-N—((S)-(7-((R*)-1-(2-(3,3-difluorocyclobutyl)acetamido)propyl)imidazo[1,2-b]pyridazin-2-yl)(4,4-difluorocyclohexyl)methyl)-1,2,5-oxadiazole-3-carboxamide]",42 nM,–
170 nM,"CCC(CC(=O)N[C@@H](c1cnn2cc([C@@H](NC(=O)c3nonc3C)C3CCC(F)(F)CC3)nc2c1)C1CC1)CC(F)(F)F (single isomer, unassigned) [Example 343, N—((S)-(7-((R)-Cyclopropyl((S*)-3-ethyl-5,5,5-trifluoropentanamido)methyl)imidazo[1,2-b]pyridazin-2-yl)(4,4-difluorocyclohexyl)methyl)-4-methyl-1,2,5-oxadiazole-3-carboxamide]",–,430 nM
3700 nM,"Cc1nonc1C(=O)N[C@H](c1cn2ncc(C(NC(=O)CC3(C(F)(F)F)CC3)C3(C#N)CC3)cc2n1)C1CCC(F)(F)CC1 (single isomer, unassigned) [Example 432, N—((S)-(7-((R*)-(1-Cyanocyclopropyl)(2-(1-(trifluoromethyl)cyclopropyl)acetamido)methyl)imidazo[1,2-b]pyridazin-2-yl)(4,4-difluorocyclohexyl)methyl)-4-methyl-1,2,5-oxadiazole-3-carboxamide]",–,> 20000 nM
100 nM,"[2H]C([2H])([2H])n1nccc1C(=O)N[C@H](c1cn2ncc([C@H](NC(=O)C[C@H](C)C(F)(F)F)C3CCC3)cc2n1)C1CCC(F)(F)CC1 (relative stereo) [Example 503, N—((S)-(7-((R*)-Cyclobutyl((S*)-4,4,4-trifluoro-3-methylbutanamido)methyl)imidazo[1,2-]pyridazin-2-yl)(4,4-difluorocyclohexyl)methyl)-1-(methyl-d3)-1H-pyrazole-5-carboxamide]",130 nM,–
45 nM,"CC(C)Oc1cncc(C(=O)N[C@H](c2cn3ncc([C@H](NC(=O)CCC(F)(F)F)C4CC4)cc3n2)C2CCC(F)(F)CC2)c1 [Example 185, N—((S)-(7-((R)-Cyclopropyl(4,4,4-trifluorobutanamido)methyl)imidazo[1,2-b]pyridazin-2-yl)(4,4-difluorocyclohexyl)methyl)-5-isopropoxynicotinamide]",690 nM,–
110 nM,"O=C(CCC(F)(F)F)N[C@@H](c1cnn2cc([C@@H](NC(=O)c3cnnn3CC3CC3(F)F)C3CCC(F)(F)CC3)nc2c1)C1CC1 (stereo partly drawn) [Example 92, N—((S)-(7-((R)-Cyclopropyl(4,4,4-trifluorobutanamido)methyl)imidazo[1,2-b]pyridazin-2-yl)(4,4-difluorocyclohexyl)methyl)-1-((2,2-difluorocyclopropyl)methyl)-1H-1,2,3-triazole-5-carboxamide]",140 nM,–
2500 nM,"COc1cccc(C(=O)N[C@H](c2cn3ncc([C@H](NC(=O)CCC(F)(F)F)C4CC4)cc3n2)C2CCC(F)(F)CC2)n1 [Example 226, N—((S)-(7-((R)-Cyclopropyl(4,4,4-trifluorobutanamido)methyl)imidazo[1,2-b]pyridazin-2-yl)(4,4-difluorocyclohexyl)methyl)-6-methoxypicolinamide]",> 20000 nM,–
950 nM,"Cc1nonc1C(=O)N[C@H](c1cn2ncc([C@H](NC(=O)CO[C@H](C)C(F)(F)F)C3CC3)cc2n1)C1CCC(F)(F)CC1 [Example 357, N—((S)-(7-((R)-Cyclopropyl(2-(((R)-1,1,1-trifluoropropan-2-yl)oxy)acetamido)methyl)imidazo[1,2-b]pyridazin-2-yl)(4,4-difluorocyclohexyl)methyl)-4-methyl-1,2,5-oxadiazole-3-carboxamide]",2500 nM,–
70 nM,"CC(C)n1nccc1C(=O)N[C@H](c1cn2ncc([C@H](NC(=O)C[C@H]3CC3(F)F)C3CC3)cc2n1)C1CCC(F)(F)CC1 (single isomer, unassigned) [Example 140]",89 nM,–
59 nM,"COCC(NC(=O)CC1CC(F)(F)C1)c1cnn2cc([C@@H](NC(=O)c3nonc3C3CC3)C3CCC(F)(F)CC3)nc2c1 (single isomer, unassigned) [Example 525, 4-Cyclopropyl-N—((S)-(7-((R*)-1-(2-(3,3-difluorocyclobutyl)acetamido)-2-methoxyethyl)imidazo[1,2-b]pyridazin-2-yl)(4,4-difluorocyclohexyl)methyl)-1,2,5-oxadiazole-3-carboxamide]",–,42 nM
940 nM,"CC1(C(=O)N[C@H](c2cn3ncc([C@H](NC(=O)CCC(F)(F)F)C4CC4)cc3n2)C2CCC(F)(F)CC2)CC1(F)F (stereo partly drawn) [Example 148, N—((S)-(7-((R)-Cyclopropyl(4,4,4-trifluorobutanamido)methyl)imidazo[1,2-b]pyridazin-2-yl)(4,4-difluorocyclohexyl)methyl)-2,2-difluoro-1-methylcyclopropane-1-carboxamide]",1700 nM,–
120 nM,"Cc1nonc1C(=O)N[C@H](c1cn2ncc([C@H](NC(=O)[C@H](F)[C@@H](C)C(F)(F)F)C3CC3)cc2n1)C1CCC(F)(F)CC1 (relative stereo) [Example 352, N—((S)-(7-((R)-Cyclopropyl((2R*,3R*)-2,4,4,4-tetrafluoro-3-methylbutanamido)methyl)imidazo[1,2-b]pyridazin-2-yl)(4,4-difluorocyclohexyl)methyl)-4-methyl-1,2,5-oxadiazole-3-carboxamide]",190 nM,–
> 50000 nM,"O=C(CC1CC(F)(F)C1)N[C@@H](c1cnn2cc([C@@H](NC(=O)c3nonc3O)C3CCC(F)(F)CC3)nc2c1)C1CC1 [Example 412, N—((S)-(7-((R)-Cyclopropyl(2-(3,3-difluorocyclobutyl)acetamido)methyl)imidazo[1,2-b]pyridazin-2-yl)(4,4-difluorocyclohexyl)methyl)-4-hydroxy-1,2,5-oxadiazole-3-carboxamide]",> 20000 nM,–
170 nM,"O=C(CCC(F)(F)F)N[C@@H](c1cnn2cc([C@@H](NC(=O)c3ncnn3CC(F)F)C3CCC(F)(F)CC3)nc2c1)C1CC1 [Example 56, N—((S)-(7-((R)-Cyclopropyl(4,4,4-trifluorobutanamido)methyl)imidazo[1,2-b]pyridazin-2-yl)(4,4-difluorocyclohexyl)methyl)-1-(2,2-difluoroethyl)-1H-1,2,4-triazole-5-carboxamide]",730 nM,–
290 nM,"CC(F)(F)Cn1ncnc1C(=O)N[C@H](c1cn2ncc([C@H](NC(=O)CCC(F)(F)F)C3CC3)cc2n1)C1CCC(F)(F)CC1 [Example 477, N—((S)-(7-((R)-Cyclopropyl(4,4,4-trifluorobutanamido)methyl)imidazo[1,2-b]pyridazin-2-yl)(4,4-difluorocyclohexyl)methyl)-1-(2,2-difluoropropyl)-1H-1,2,4-triazole-5-carboxamide]",1400 nM,–
85 nM,"CC(C)(F)c1nonc1C(=O)N[C@H](c1cn2ncc([C@H](NC(=O)CCC(F)(F)F)C3CC3)cc2n1)C1CCC(F)(F)CC1 [Example 388, N—((S)-(7-((R)-Cyclopropyl(4,4,4-trifluorobutanamido)methyl)imidazo[1,2-b]pyridazin-2-yl)(4,4-difluorocyclohexyl)methyl)-4-(2-fluoropropan-2-yl)-1,2,5-oxadiazole-3-carboxamide]",100 nM,–
